The test system of series [1] is HeLa cells. The experiment in a line: cytotoxicity by crystal violet staining. It is filed as cell-based. Particulars: 40 h. Here is the method:
Seven of the compounds according to the invention were selected for biological tests. Their cytotoxicity was assessed using crystal violet staining as adapted from standard procedure^[31]. Briefly, HeLa cells were seeded on 96-well plates, treated with the given concentrations of the selected compound, and exposed or not to the pulse protocol of illumination with light at 390 nm (pulses of 75 ms every 15 s). After 40 h cells were stained with crystal violet solution (0.5% crystal violet in 20% methanol) for 10 min. Unbound crystal violet was removed by rinsing with distilled water and cells were air-dried. Crystal violet was subsequently eluted from cells with 0.1 M sodium citrate in 50% ethanol. The absorbance of crystal violet is proportional to the cell number and was determined at 590 nm with a FLUOstar Omega microplate reader (BMG Labtech).
Each compound was tested at 6 doses: 100 nM, 500 nM, 1 μM, 2 μM, 5 μM and 10 μM. In order to ensure their solubility in the cell culture media, DMSO was used as a co-solvent, and to provide comparability between all samples the volume of DMSO was adjusted to obtain its final concentration as 1% in the cell culture media for all the compounds at all concentrations tested.
Results presented in Table 4 below are expressed as a fold growth relative to the control growth of the cells treated only with a co-solvent (1% DMSO), and are represented as a mean value from triplicates coming from a representative experiment.

Series [2] is described as follows: UV-Vis absorption spectra of trans and cis isomers (λstrong, εE, λiso). Particulars: PBS pH = 7.4, 20% MeCN. It is filed as physicochemical. Here is the method:
A(λmeas, λirrad) is used to indicate the measured UV-Vis absorption spectrum in the range 340 nm<λmeas<650 nm, as a function of the irradiating wavelength λirrad once PSS(λirrad) has been established. UV-Vis measurement of A(λmeas, λirrad) was performed. It was considered that the PSS had been established when the absorbance profile ceased to alter under continued irradiation. An isosbestic point (wavelength λiso) was found for each compound by examining where the absorption A(λmeas) was invariant with respect to changing λirrad. A(λmeas, dark) was also acquired with samples that had been kept in the dark for at least several hours, and it was assumed that no significant spectral contribution from the cis isomer was present in these spectra. […]
HPLC (high-performance liquid chromatography) was then used as described in Part A to measure ε*E(λ) and ε*Z(λ) (the separated absorption profiles of trans and cis isomers respectively, in arbitrary units which are not intercomparable in an absolute sense). It was approximated that these spectra would be identical in shape if measured under the UV-Vis conditions, so once ε*E(λ) and ε*Z(λ) were scaled appropriately relative to each other, these scaled spectra could be used to deconvolute A(λmeas, λirrad). This approximation was considered useful especially in the regions of greatest spectral interest, ie. regions of relatively strong absorption (since only rather well-absorbed wavelengths will allow significant photoisomerisation under finite photon flux). To place the arbitrary-unit absorption spectra on an absolute scale, the maximal absorption wavelength λstrong of the trans-isomer was first selected by examining A(λmeas, dark): typically, λstrong≈380 nm. with Expressing A(λstrong, dark) in units M^−1cm^−1, ε*E(λstrong) was then scaled so that εE(λstrong)=A(λstrong, dark), giving:
εE(λ)=ε*E(λ)×[A(λstrong,dark)/ε*E(λstrong)]
and the isosbestic point was used to scale the cis-isomer spectrum as per:
εZ(λ)=ε*Z(λ)×[εE(λiso)/ε*Z(λiso)]
However, using A(λstrong, dark) was preferred, since A(λiso) was typically so much smaller that the standard deviation in the scaled absorptivities which it generated was far greater.
Absorption spectra in cuvette (“UV-Vis”) were acquired on a Varian CaryScan 50 (1 cm, 100 μL or 1 mL volume) with Peltier cell temperature control unit maintained at 37° C., in PBS at pH˜7.4 containing a low percentage of cosolvent if needed (typically 2% MeCN or 5% DMSO). A ThorLabs Polychrome V monochromator with a fibre optic cable output directed into the cuvette was used to perform photoisomerisation studies by UV-Vis spectrophotometry although single LEDs of approximately 10-20 mW output, 15-20° cone angle, and 10-15 nm bandwidth FWHM, obtained commercially from Roithner Lasertechnik GmbH, were equally successful in providing repeatable monochromatic photoisomerisation. Separated spectra of trans and […] forms were acquired from the inline Diode Array Detector on the AGILENT 1260 SL coupled LC-MS system after HPLC separation. Fluorescence spectrophotometry (excitation and emission spectra) were acquired on a Varian CaryEclipse fluorescence spectrophotometer.
By the above procedure, the trans- and cis-isomers of each species were separated by HPLC as described in Part A, and ε*E(λ) and ε*Z(λ) were measured on the inline ultraviolet/visible Diode Array Detector; these were then scaled as outlined above. The parameters λstrong, εE(λstrong) and λiso are tabulated for selected compounds below (Table 1).

Series [3] in a line: thermal reversion halflife of spontaneous cis->trans isomerisation. It is filed as physicochemical. As to conditions: PBS pH = 7.4, 20% MeCN. An excerpt:
Finally, trends in τ were ascertained by establishing the PSS at λstrong, then turning off the light source at time t0, and measuring A(λstrong, t) over time. Data were acquired for half an hour, or else the first three halflives (whichever was the shorter period), then fitted to the equation:
A(λstrong,t)=A(λstrong,dark)−[A(λstrong,dark)−A(λstrong,t0)]×e^−kt
This fit was used to return an in vitro halflife τ* for the cis->trans spontaneous thermal reversion isomerisation process, defined as τ=ln 2/k. It should be noted however, that azoaryl compounds' thermal reversion rates are known to depend strongly upon their microenvironment, such as pH and solvent/solvation effects^[7,38]. This was shown for compound (I.1), where a change of only 1.4 pH units gave a 25% change in τ*; note that different compounds are expected to respond very differently to changes in pH so no unifying trends are expected. Therefore the τ* acquired in vitro were considered appropriate only for qualitative intercomparison between samples (trend of τ* vs structure), rather than quantitative prediction of the τ values which might be experienced in cellulo or in vivo. Indeed, these in vitro τ* values appeared at least three times longer than what would have been expected based on in cellulo experiments where the pause time between activating pulses was varied.
Thermal reversion times were measured as described above. Those for selected compounds are presented below (Table 2).

Series [4] in a line: photoisomerisation: photostationary state, calculated φ(λ) and E(λ), reversible cycling. The class given is physicochemical. Particulars: irradiation at 390 nm. The protocol:
In a simple analysis of the PSS(λ) and E(λ), it was approximated that ΦEZ and ΦZE (the quantum efficiencies of the photoisomerisations trans->cis and cis->trans, respectively) are equal and independent of wavelength, and also that the kinetics of spontaneous reversion could be ignored (eg. high-intensity light source). A function φ(λ) was then calculated as per: […]
If ΦEZ and ΦZE are equal and independent of wavelength, φ(λ) gives the true PSS(λ). The wavelength independence of ΦEZ and ΦZE may be an acceptable approximation in regions of relatively strong absorption within the visible spectrum. Their equality may also be an acceptable assumption: since if ΦEZ and ΦZE are unequal but only depend weakly on wavelength in regions of relatively strong absorption, then φ(λ) is a transform of the true PSS(λ); this transform preserves the features of PSS(λ) which were most desired for evaluation in this study as long as ΦEZ and ΦZE are not too different (eg less than a factor of ten difference). Indeed, the calculated φ(λ) were later confirmed by in cellulo experiments to give reliable indications of favourable wavelengths for bulk trans->cis and bulk cis->trans photoisomerisation, which is the benchmark for a suitable analysis of the PSS(λ). The advantages of calculating φ(λ) rather than exhaustively measuring the PSS(λ) experimentally are that (a) the throughput is much faster, (b) the true PSS(λ) may be difficult to achieve at weakly-absorbing wavelengths or with fast-relaxing compounds, (c) the true PSS(λ) may be difficult to measure accurately at wavelengths where one isomer strongly dominates the sample even if both are relatively strongly absorbing, and (d) the variation of PSS(λ) with changes in the local biological microenvironment (polarity, pH etc) may anyway be larger than the error incurred by the assumption φ(λ)═PSS(λ).
Also following the assumption that ΦEZ and ΦZE are equal and independent of wavelength, a photoisomerisation efficiency E(λ) was calculated as per:
E(λ)=[εE(λ)+εZ(λ)]/[εE(390)+εZ(390)]
Larger values of E(λ) therefore denote higher efficiency photoisomerisation (less photon flux is required to approach the PSS(λ)). E(λ) was parametrised to the absorption coefficients at 390 nm, since typically that wavelength gave satisfactorily strong absorption and efficient photoisomerisation. It should be noted that E(λ) are not intercomparable between different compounds. This reflects the realistic scenario that the ΦEZ (or the ΦZE) of two arbitrarily chosen compounds may differ by a significant amount, even if the approximation that ΦEZ and ΦZE are equal and independent of wavelength applies independently to each compound.
A(λstrong) was measured over time in the UV-Vis cuvette in non-degassed PBS left open to the atmosphere, […], at 37° C., while the monochromator was used to apply λirrad alternating between two values λ1 and λ2, chosen to induce net trans->cis and net cis->trans isomerisation respectively. Typical results are presented for compound I.1 (FIG. 3). The absorbance of I.1 (18 μM) was measured at λstrong=378 nm, while the irradiating wavelength was held alternately at λ1=388 nm (50 s; bulk trans->cis) then λ2=508 nm (180 s, bulk cis->trans). Higher absorbance corresponds to a greater amount of trans isomer: an absorbance of 0.27 here corresponds to an approximately 5:1 ratio of trans:cis isomer in the sample, and an absorbance of 0.12 here corresponds to an approximately 1:2 ratio of trans:cis isomer in the sample. […] Typically, compounds of the invention could be bulk-photoisomerised hundreds of times over a timescale of hours (50 representative cycles are shown in FIG. 3 for I.1), such that the majority species in a sample was photocontrollably alternated between the trans-isomer and the cis-isomer. […]

Setting [5] is: 100 nM, 390 nm (75 ms every 15 s).
Where [6] appears, read: 500 nM, 390 nm (75 ms every 15 s).
[7] abbreviates: 1 μM, 390 nm (75 ms every 15 s).
[8] abbreviates: 2 μM, 390 nm (75 ms every 15 s).
Setting [9] is: 5 μM, 390 nm (75 ms every 15 s).
Where [10] appears, read: 10 μM, 390 nm (75 ms every 15 s).

For `COc1ccc(N=Nc2cc(OC)c(OC)c(OC)c2)c(F)c1` [I.4, 1-(2-fluoro-4-methoxyphenyl)-2-(3,4,5-trimethoxyphenyl)diazene], the mean fold growth in series [1] (setting [5]) was determined as 0.98 fold; in series [1] (100 nM, Dark) it was 0.93 fold; in series [1] (setting [6]), 0.78 fold; in series [1] (500 nM, Dark), 0.93 fold; in series [1] (setting [7]) it was 0.53 fold; in series [1] (1 μM, Dark), 0.89 fold. Further, the mean fold growth in series [1] (setting [8]) is on record as 0.48 fold; in series [1] (2 μM, Dark), 0.94 fold; in series [1] (setting [9]), 0.44 fold; in series [1] (5 μM, Dark), 0.94 fold; in series [1] (setting [10]), 0.36 fold; in series [1] (10 μM, Dark) it was 0.78 fold. Further, the “εE(λstrong)” value in series [2] came to 19804 M⁻¹ cm⁻¹. In addition, the λiso in series [2] was 455 nm. In series [2], this compound displayed a λstrong of 365 nm. The “τ, reversion time” value in series [3] is 119 min.

In the case of `COc1ccc(N=Nc2cc(OC)c(OC)c(OC)c2)cc1` [I.6, 1-(4-methoxyphenyl)-2-(3,4,5-trimethoxyphenyl)diazene, reference compound], the mean fold growth in series [1] (setting [5]) was 0.99 fold; in series [1] (100 nM, Dark), 1.00 fold; in series [1] (setting [6]) it was 1.09 fold; in series [1] (500 nM, Dark), 1.07 fold; in series [1] (setting [7]), 0.79 fold; in series [1] (1 μM, Dark), 0.96 fold. For the same compound, the mean fold growth is reported as 0.47 fold in series [1] (setting [8]); 0.96 fold in series [1] (2 μM, Dark); 0.68 fold in series [1] (setting [9]); 0.93 fold in series [1] (5 μM, Dark); 0.37 fold in series [1] (setting [10]); 0.88 fold in series [1] (10 μM, Dark). Further, the “εE(λstrong)” value in series [2] amounted to 16300 M⁻¹ cm⁻¹. Besides, the λiso in series [2] turned out to be 445 nm. Further, in series [2], the λstrong is 365 nm. Besides, the “τ, reversion time” value in series [3] came to 83 min.

Take `COc1ccc(N=Nc2cc(OC)c(OC)c(OC)c2)c(O)c1` [I.8, 5-methoxy-2-((3,4,5-trimethoxyphenyl)diazenyl)phenol]: the “change in absorbance spectrum upon irradiation” value (shortened to “change”) in series [4] is “no measurable change in absorbance spectrum”. Besides, in series [2], the “εE(λstrong)” value amounted to 14900 M⁻¹ cm⁻¹ and the λstrong came out at 390 nm. Besides, the “τ, reversion time” value in series [3] is recorded as “TOO FAST”.

For `COc1ccc(N=Nc2cc(OC)c(OC)c(OC)c2)c(N)c1` [I.16, 5-methoxy-2-((3,4,5-trimethoxyphenyl)diazenyl)aniline], the “change” value in series [4] is listed as “no measurable change in absorbance spectrum”. In series [2], the “εE(λstrong)” value was determined as 14430 M⁻¹ cm⁻¹ and the λstrong amounted to 410 nm. Besides, in series [3], the “τ, reversion time” value is listed as “TOO FAST”.

Turning to `COc1ccc(N=Nc2cc(OC)c(OC)c(OC)c2)c(O)c1C` [I.17, 3-methoxy-2-methyl-6-((3,4,5-trimethoxyphenyl)diazenyl)phenol], the “change” value in series [4] was “no measurable change in absorbance spectrum”. Moreover, in series [2], the “εE(λstrong)” value was 10872 M⁻¹ cm⁻¹ and the λstrong stood at 385 nm. In addition, the “τ, reversion time” value in series [3] is listed as “TOO FAST”.

Source of the values: patent US20170051149A1, “AZOARYLS AS REVERSIBLY MODULATABLE TUBULIN INHIBITORS” (ECOLE NORMALE SUPERIEURE DE LYON, priority 2014, published 2017).
